Measured values: the SangsterLogP compilation

experiment: method code SF-GLC, from DOI: 10.1007/bf00316585, PMID: 6732504

Question: For `CC(C)CCC#N`, which logP is on record?
Answer: Its logP is 1.54.

Question: With `CCCC#N` as the molecule, how does the logP read?
Answer: The logP was 0.53.

Question: For `CC(C)C#N`, which logP is on record?
Answer: Its logP is 0.46.

Question: For `N#CCCCl`, which logP is on record?
Answer: The logP was 0.18.

Question: For `CCCCCCCCC#N`, which logP is on record?
Answer: Its logP is 3.12.

Question: For `N#CCCO`, which logP is on record?
Answer: The logP was -0.94.

Question: Which logP does the source give for `CCCCCCCC#N` here?
Answer: The logP was 2.75.

Question: With `N#CCCl` as the molecule, how does the logP read?
Answer: The logP was 0.23.

Question: With `C=C(C)C#N` as the molecule, how does the logP read?
Answer: Its logP is 0.68.

Question: With `C=CCC#N` as the molecule, how does the logP read?
Answer: Its logP is 0.4.

Question: With `N#CCCCCl` as the molecule, how does the logP read?
Answer: The logP was 0.56.

Question: For `CCCCCC#N`, which logP is on record?
Answer: Its logP is 1.66.
